Experimental data reported in ChEMBL document CHEMBL5257160, “Siderophore conjugates to combat antibiotic-resistant bacteria” (2023).
In brackets after ≈: the same amount, converted by molar mass. Values belong to the molecule of their own block, whether it stands above or below them. Numbered stars: 1 amine (or outer) side, 2 acyl side, 3 side chain; on linkers, the order of the positions; unused ones are H or OH. Square brackets hold non-standard residues; d marks the D form. Peptide text beside a SMILES is read from it. X1 = Cn1c(=O)n([C@@H]2S[C@H]([C@H](O)[C@@H](N[*:1])C(=O)[*:2])[C@@H](O)[C@H]2O)cc/c1=N\C(N)=O; Orn(N5-OH,N5-Ac) = CC(=O)N(O)CCC[C@H](N)C(=O)O

Assays:
Assay type in all cases: functional
Acinetobacter baumannii = assay: Antibacterial activity against carbapenem - resistant Acinetobacter baumannii
Enterobacter sp. = assay: Antibacterial activity against Enterobacter sp. assessed as inhibition of bacterial growth
Proteus sp. = assay: Antibacterial activity against Proteus sp. assessed as inhibition of bacterial growth; conditions: Proteus sp. (in: enterobacteria)
[1] = system: Stenotrophomonas maltophilia; assay: Antibacterial activity against Stenotrophomonas maltophilia assessed as inhibition of bacterial growth
Streptococcus pneumoniae = assay: Antibacterial activity against Streptococcus pneumoniae assessed as inhibition of bacterial growth
Yersinia enterocolitica = assay: Antibacterial activity against Yersinia enterocolitica assessed as inhibition of bacterial growth in iron depleting media incubated for 20 hrs by CLSI protocol based assay
Escherichia coli = assay: Antibacterial activity against Escherichia coli assessed as inhibition of bacterial growth
Klebsiella sp. = assay: Antibacterial activity against Klebsiella sp. assessed as inhibition of bacterial growth
Serratia sp. = assay: Antibacterial activity against Serratia sp. assessed as inhibition of bacterial growth; conditions: Serratia sp. (in: enterobacteria)
Pseudomonas aeruginosa = assay: Antibacterial activity against Pseudomonas aeruginosa assessed as inhibition of bacterial growth
Enterobacteriaceae = assay: Antibacterial activity against Enterobacteriaceae assessed as inhibition of bacterial growth

SMILES: C[C@@H]1S[C@@H]2[C@H](NC(=O)/C(=N/OC(C)(C)C(=O)O)c3csc(N)n3)C(=O)N2C(C(=O)[O-])=C1C[N+]12CCC(CNC(=O)c3ccc(O)c(O)c3Cl)(CC1)C2
MIC (Acinetobacter baumannii): ≤ 0.03 mg/L

SMILES: CC(C)(O/N=C(\C(=O)N[C@@H]1C(=O)N2C(C(=O)[O-])=C(C[N+]3(CCNC(=O)c4ccc(O)c(O)c4Cl)CCCC3)CS[C@H]12)c1csc(N)n1)C(=O)O [CEFIDEROCOL]
MIC90 (Escherichia coli): 0.25 mg/L (≈ 0.332 µM)
MIC90 (Klebsiella sp.): 0.25 mg/L (≈ 0.332 µM)
MIC90 (Enterobacter sp.): 0.25 mg/L (≈ 0.332 µM)
MIC90 (Serratia sp.): 0.25 mg/L (≈ 0.332 µM)

SMILES: C[C@H]1[C@H](NC(=O)/C(=N\OCc2cc(=O)c(O)cn2O)c2csc(N)n2)C(=O)N1OS(=O)(=O)O
MIC (Pseudomonas aeruginosa): 2 mg/L (≈ 3.96 µM)
MIC (Enterobacteriaceae): ≤ 1 mg/L

Now from value to molecule:

MIC90 (Enterobacter sp.): 8 mg/L (≈ 12.6 µM)
MIC90 (Proteus sp.): 0.12 mg/L (≈ 0.19 µM)
MIC90 [1]: 0.25 mg/L (≈ 0.395 µM)
SMILES: CC(C)(O/N=C(\C(=O)N[C@@H]1C(=O)N(S(=O)(=O)O)C1CNC(=O)NCc1cc(=O)c(O)cn1O)c1csc(N)n1)C(=O)O (some centres undefined)

MIC (Streptococcus pneumoniae): 0.00196 mg/L (≈ 0.00172 µM)
MIC (Yersinia enterocolitica): 0.0078 mg/L (≈ 0.00683 µM)
SMILES: CC(=O)N(O)CCC[C@H](NC(=O)[C@H](CCCN(O)C(C)=O)NC(=O)[C@@H](N)CCCN(O)C(C)=O)C(=O)N[C@@H](CCC(=O)NCCNC(=O)CC[C@@H](NC(=O)c1ccc(N(C)Cc2cnc3nc(N)nc(N)c3n2)cc1)C(=O)O)C(=O)O

MIC (Escherichia coli): 0.005 mg/L (≈ 0.00504 µM)
MIC (Streptococcus pneumoniae): 0.01 mg/L (≈ 0.0101 µM)
SMILES: CC(=O)N(O)CCC[C@H](NC(=O)[C@H](CCCN(O)C(C)=O)NC(=O)[C@@H](N)CCCN(O)C(C)=O)C(=O)N[C@@H](CO)C(=O)N[C@@H](C(=O)O)[C@@H](O)[C@H]1S[C@@H](n2cc/c(=N\C(N)=O)n(C)c2=O)[C@H](O)[C@@H]1O (H-[Orn(N5-OH,N5-Ac)][Orn(N5-OH,N5-Ac)][Orn(N5-OH,N5-Ac)]S[X1]-OH)
